# Test system: OF1 mice
# Experiment: Maximal electroshock test (MES Test)
# Format: in vivo
# Conditions: Mus musculus, po; 50 mg/kg, p.o., pre-treatment time −1 h; read-out: %-Protection
# How it was run: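 Compound given p.o. (typically 50 mg/kg) 1 h before tonic-clonic convulsions were induced via temporal electrodes (50 Hz, 18 mA, 0.2 s); seizure lasting 3 s or less counted as protection. Read-out is percent protected of five mice per condition; ED50 calculated, blood exposure sampled after shock.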
row,Compound,responders at 50 mg/kg
1,"CCCCC(=O)N(n1c(=O)[nH]c2cc(C(F)(F)F)c(C(O)CC)cc2c1=O)S(C)(=O)=O (stereo not shown) [Example 12.05, N-[6-(1-Hydroxy-propyl)-2,4-dioxo-7-trifluoromethyl-1,4-dihydro-2H-quinazolin-3-yl]-N-pentanoyl-methanesulfonamide]",40%
2,"CC(C)CC(=O)N(n1c(=O)[nH]c2cc(C(F)(F)F)c(-n3ccnc3)cc2c1=O)S(C)(=O)=O [Example 4.06, N-(6-Imidazol-1-yl-2,4-dioxo-7-trifluoromethyl-1,4-dihydro-2H-quinazolin-3-yl)-N-(3-methyl-butyryl)-methanesulfonamide]",20%
3,"CC(C)c1cc2[nH]c(=O)n(N(C(=O)CCCN3CCOCC3)S(C)(=O)=O)c(=O)c2cc1-c1ccnn1C [Example 3.37, N-[7-Isopropyl-6-(2-methyl-2H-pyrazol-3-yl)-2,4-dioxo-1,4-dihydro-2H-quinazolin-3-yl]-N-(4-morpholin-4-yl-butyryl)-methanesulfonamide]",100%
4,"CCCCC(=O)N(n1c(=O)[nH]c2cc(C(F)F)c(-c3ccnn3C(C)C)cc2c1=O)S(C)(=O)=O [Example 6.03, N-[7-Difluoromethyl-6-(2-isopropyl-2H-pyrazol-3-yl)-2,4-dioxo-1,4-dihydro-2H-quinazolin-3-yl]-N-pentanoyl-methanesulfonamide]",40%

# Same assay, conditions: Mus musculus, po; Dose: 25 mg/kg, p.o. (footnote b), pre-treatment time −1 h; read-out: %-Protection
row,Compound,responders at 25 mg/kg
1,"CCCCC(=O)N(n1c(=O)[nH]c2cc(C(F)F)c(-c3ccnn3C(C)C)cc2c1=O)S(C)(=O)=O [Example 6.03, N-[7-Difluoromethyl-6-(2-isopropyl-2H-pyrazol-3-yl)-2,4-dioxo-1,4-dihydro-2H-quinazolin-3-yl]-N-pentanoyl-methanesulfonamide]",0%

# Biological target: AMPA receptor
# Experiment: [3H]CNQX binding test (AMPA-receptor binding)
# Parameters: species or system rat
# Conditions: Table 1A parent compounds; AMPA-receptor binding as described for Table 2; read-out: IC50
# Protocol: CNQX binding test (Honore et al. Biochem. Pharmacol. 1989, 38: 3207-3212). This test is performed as follows.
# Brain membranes: The animals are sacrificed, the brain removed and homogenized in 10 volumes of ice-cold 10% sucrose with a glass/Teflon homogenizer at positions 5 for 30 sec. The membranes are centrifuged at 1000×g for 10 min, and the supernatant centrifuged at 20,000×g for 15 min. The resulting pellet is resuspended in 10 volumes of cold water with a tissue homogenizer (Brinkman Polytron) at position 5 for 15 sec and the suspension centrifuged at 8000×g for 10 min. The supernatant including the buffy layer is centrifuged at 40,000×g for 20 min, the pellet resuspended in 5 volumes of water and the suspension frozen (20-30 min in dry ice/MeOH) and thawed (water-bath at 37° C.) twice. The suspension is centrifuged at 40,000×g for 20 min, the pellet resuspended in 50 mM HEPES/KOH, pH 7.5, and centrifuged at 40,000×g for 10 min. The final pellet is resuspended with a glass/Teflon homogenizer in 5 volumes of HEPES/KOH buffer; 2 mL aliquots are frozen and stored in liquid nitrogen.
# Pretreatment of membranes: Membranes are thawed at 35° C. and once washed with 50 mM HEPES/KOH by centrifugation at 39,000×g for 10 min. The final pellet is resuspended with a glass/Teflon homogenizer in the same buffer.
# Radioligand binding assay: It is performed using 96-well microtiterplates in a volume of 0.3 mL of 50 mM HEPES/KOH, pH 7.2, 100 μg membrane protein, 5 nM [^3H]-CNQX (NEN) and the compound to be tested. Incubation is performed at 4° C. for 40 min and the reaction is terminated by centrifugation (Sigma 4K10) at 3700×g for 30 min. The pellet is washed once with cold buffer and then dissolved in 0.02 mL of the tissue solubilizer Soluene for 20 min. Two hundred μL of the scintillation fluid Microscint 20 (Packard) are added and the radioactivity is counted in a Packard Topcount scintillation counter at an efficiency of 40-45%. Nonspecific binding is defined by 10 μM CNQX. Assays are performed in triplicate.
row,Compound,IC50
1,CCOC(CC)c1cc2c(=O)n(NS(C)(=O)=O)c(=O)[nH]c2cc1C(F)(F)F (stereo not shown) [Example 26.0],510 nM
2,CCCOC(CC)c1cc2c(=O)n(NS(C)(=O)=O)c(=O)[nH]c2cc1C(F)(F)F (stereo not shown) [Example 19.0],520 nM
3,CCOC(C)c1cc2c(=O)n(NS(C)(=O)=O)c(=O)[nH]c2cc1C(F)(F)F (stereo not shown) [Example 17.0],350 nM
4,CCCOC(C)c1cc2c(=O)n(NS(C)(=O)=O)c(=O)[nH]c2cc1C(F)(F)F (stereo not shown) [Example 22.0],980 nM
5,CS(=O)(=O)Nn1c(=O)[nH]c2cc(C(F)(F)F)c(C3CCCCO3)cc2c1=O (stereo not shown) [Example 29.0],1080 nM
6,CC(F)c1cc2[nH]c(=O)n(NS(C)(=O)=O)c(=O)c2cc1-c1ccnn1C(C)C (stereo not shown) [Example 42.0],220 nM
7,CC(C)c1cc2[nH]c(=O)n(NS(C)(=O)=O)c(=O)c2cc1-c1ccnn1-c1ccccc1 [Example 49.0],3500 nM
8,Cn1nccc1-c1cc2c(=O)n(NS(C)(=O)=O)c(=O)[nH]c2cc1CF [Example 39.0],770 nM
9,CC(OCc1ccccc1)c1cc2c(=O)n(NS(C)(=O)=O)c(=O)[nH]c2cc1C(F)(F)F (stereo not shown) [Example 51.0],780 nM
10,Cn1nccc1-c1cc2c(=O)n(NS(C)(=O)=O)c(=O)[nH]c2cc1C(F)F [Example 34.0],260 nM
11,CC(OCC(F)(F)F)c1cc2c(=O)n(NS(C)(=O)=O)c(=O)[nH]c2cc1C(F)(F)F (stereo not shown) [Example 52.0],1120 nM
12,CS(=O)(=O)Nn1c(=O)[nH]c2cc(C(F)(F)F)c([C@H]3CO[C@@H](CO)C3)cc2c1=O [Example 47.0],370 nM
13,CC(C)n1nccc1-c1cc2c(=O)n(NS(C)(=O)=O)c(=O)[nH]c2cc1CF [Example 33.0],440 nM
14,CS(=O)(=O)Nn1c(=O)[nH]c2cc(C(F)(F)F)c(-c3ccnn3C3CCCC3)cc2c1=O [Example 46.0],1200 nM
15,CCCC(OC)c1cc2c(=O)n(NS(C)(=O)=O)c(=O)[nH]c2cc1C(F)(F)F (stereo not shown) [Example 27.0],720 nM
16,CC(C)COC(C)c1cc2c(=O)n(NS(C)(=O)=O)c(=O)[nH]c2cc1C(F)(F)F (stereo not shown) [Example 24.0],1810 nM
17,CS(=O)(=O)Nn1c(=O)[nH]c2cc(C(F)(F)F)c(-c3ccnn3O)cc2c1=O [Example 31.0],140 nM
18,CC(C)OC(C)c1cc2c(=O)n(NS(C)(=O)=O)c(=O)[nH]c2cc1C(F)(F)F (stereo not shown) [Example 18.0],320 nM
19,CS(=O)(=O)Nn1c(=O)[nH]c2cc(C(F)(F)F)c(-c3ccn[nH]3)cc2c1=O [Example 38.0],470 nM
20,CCOC(C)c1cc2c(=O)n(NS(C)(=O)=O)c(=O)[nH]c2cc1CC (stereo not shown) [Example 50.0],1850 nM

# Reference: patent US20130053381A1, “2,4-DIOXO-1,4-DIHYDRO-2H-QUINAZOLIN-3-YL-SULFONAMIDE DERIVATIVES” (NOVARTIS AG, priority 2010, published 2013)
